Source: PMC11768104, “Identification of Two Flavonoids as New and Safe Inhibitors of Kynurenine Aminotransferase II via Computational and In Vitro Study” (Pharmaceuticals, 2025)
Read-outs that look alike come from different tables or passages of the source.

Experiments:
[1] = target: T1, recombinant human KAT-II (kynurenine aminotransferase II) (Homo sapiens, UniProt Q8N5Z0); assay: Lineweaver-Burk analysis, same fluorescent assay; format: biochemical
T1 construct: gene AADAT; recombinant, purchased from R&D Systems (Bio-Techne)
T1 sequence (Q8N5Z0 30-425): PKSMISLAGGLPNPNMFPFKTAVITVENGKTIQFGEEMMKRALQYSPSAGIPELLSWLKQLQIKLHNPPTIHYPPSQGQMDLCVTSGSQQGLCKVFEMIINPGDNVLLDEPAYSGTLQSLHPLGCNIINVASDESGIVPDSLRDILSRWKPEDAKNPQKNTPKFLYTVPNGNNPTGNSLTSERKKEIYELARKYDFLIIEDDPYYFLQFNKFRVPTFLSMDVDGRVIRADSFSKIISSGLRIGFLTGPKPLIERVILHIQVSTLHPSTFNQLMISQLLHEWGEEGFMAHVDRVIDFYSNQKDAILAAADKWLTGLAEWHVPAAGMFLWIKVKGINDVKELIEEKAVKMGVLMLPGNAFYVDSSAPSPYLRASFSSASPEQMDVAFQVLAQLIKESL
Description: Lineweaver-Burk analysis, same fluorescent assay on recombinant human KAT-II (kynurenine aminotransferase II) | competitive inhibition constant (Ki) for herbacetin and (-)-Epicatechin was calculated

[2] = target: T1, recombinant human KAT-II (kynurenine aminotransferase II); assay: microplate fluorescent kynurenine aminotransferase assay coupled to glutamate dehydrogenase; format: biochemical

Row | Ki [1] | IC50 [2] | IC50 ([2]; 1 mM L-KYN, 50 µM α-ketoglutaric acid, 5 µM PLP, pH 7.5, 30 min pre-incubation at room temperature, irreversible (binds PLP), covalent, non-competitive, error printed as 1.83) | SMILES
1 | 7.64 ± 0.46 µM | 5.98 ± 0.18 µM |  | O=c1c(O)c(-c2ccc(O)cc2)oc2c(O)c(O)cc(O)c12 [herbacetin]
2 | 9.23 ± 0.39 µM | 8.76 ± 0.76 µM |  | Oc1cc(O)c2c(c1)O[C@H](c1ccc(O)c(O)c1)[C@H](O)C2 [(-)-Epicatechin]
3 |  |  | 0.0279 ± 0.00181 µM | N[C@H]1Cc2ccccc2N(O)C1=O [PF-04859989, reference compound]
